From PubChem BioAssay (NCI)
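Assay format: 96-well plates, 48-hour exposure. Definition used: TGI = concentration required for complete inhibition of growth.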

Tests used:
Test in all cases: NCI tumour cell line growth inhibition, 48 h
HOP-18 NSCLC = test system: HOP-18 NSCLC
DLD-1 colon = test system: DLD-1 colon
M19-MEL melanoma = test system: M19-MEL melanoma
DMS 273 small cell lung = test system: DMS 273 small cell lung
XF 498 CNS = test system: XF 498 CNS
KM20L2 colon = test system: KM20L2 colon
LXFL 529 NSCLC = test system: LXFL 529 NSCLC
DMS 114 small cell lung = test system: DMS 114 small cell lung
SNB-78 CNS = test system: SNB-78 CNS
P388 leukemia = test system: P388 leukemia
P388/ADR leukemia = test system: P388/ADR leukemia
SN12K1 renal = test system: SN12K1 renal
RXF-631 renal = test system: RXF-631 renal

With `CC(=O)c1cccc(NCn2nnc3ccccc32)c1` the TGI (HOP-18 NSCLC) was greater than 100 µM, the TGI (DLD-1 colon) was greater than 100 µM and the TGI (M19-MEL melanoma) was greater than 100 µM. It also gave a TGI (DMS 273 small cell lung) greater than 100 µM, a TGI (XF 498 CNS) greater than 100 µM and a TGI (KM20L2 colon) greater than 100 µM. It also gave a TGI (LXFL 529 NSCLC) greater than 100 µM and a TGI (DMS 114 small cell lung) greater than 100 µM.

For `CN(C)c1ccc(/C=C/c2cc[n+](C)c3ccccc23)cc1`, the TGI (SNB-78 CNS) was 72.4 µM, the TGI (HOP-18 NSCLC) was 19.9 µM and the TGI (DLD-1 colon) was 17.1 µM. For the same compound, the TGI (M19-MEL melanoma) was 14.9 µM, the TGI (DMS 273 small cell lung) was 10.8 µM and the TGI (KM20L2 colon) was 13.1 µM. The TGI (LXFL 529 NSCLC) was 13.5 µM and the TGI (DMS 114 small cell lung) was 9.5 µM.

`[O-]c1on[n+]2c1c(Nc1ccc(Cl)cc1)nc1ccccc12` gave a TGI (SNB-78 CNS) greater than 100 µM, a TGI (DLD-1 colon) greater than 100 µM and a TGI (M19-MEL melanoma) greater than 100 µM. It also gave a TGI (DMS 273 small cell lung) greater than 100 µM, a TGI (XF 498 CNS) greater than 100 µM and a TGI (KM20L2 colon) greater than 100 µM. It also gave a TGI (LXFL 529 NSCLC) greater than 100 µM and a TGI (DMS 114 small cell lung) greater than 100 µM.

`CC(Oc1ccc(OCC2CCCCC2)cc1)C(=O)N(CCO)CCO` (configuration not stated) gave a TGI (SNB-78 CNS) greater than 100 µM, a TGI (HOP-18 NSCLC) greater than 100 µM and a TGI (M19-MEL melanoma) greater than 100 µM. The TGI (DMS 273 small cell lung) was greater than 100 µM, the TGI (XF 498 CNS) was greater than 100 µM and the TGI (LXFL 529 NSCLC) was greater than 100 µM. The TGI (DMS 114 small cell lung) was greater than 100 µM.

Work on `CC(CCc1ccc2c(c1)c(=N)c1ccc(N)cc1n2O)CC(C)(C)C` (configuration not stated) yielded a TGI (SNB-78 CNS) of 4.32 µM, a TGI (HOP-18 NSCLC) of 3.35 µM and a TGI (DLD-1 colon) of 3.5 µM. It also gave a TGI (M19-MEL melanoma) of 2.98 µM, a TGI (DMS 273 small cell lung) of 3.85 µM and a TGI (XF 498 CNS) of 2.45 µM. For the same compound, the TGI (KM20L2 colon) was 2.74 µM.

Compound `CC(=O)O[C@]12CCC[C@H]1C1(O)C(O)CCC[C@H]12` (some centres not stated) has a TGI (SNB-78 CNS) greater than 100 µM, a TGI (HOP-18 NSCLC) greater than 100 µM and a TGI (M19-MEL melanoma) greater than 100 µM. It also gave a TGI (DMS 273 small cell lung) greater than 100 µM, a TGI (XF 498 CNS) greater than 100 µM and a TGI (KM20L2 colon) greater than 100 µM. It also gave a TGI (LXFL 529 NSCLC) greater than 100 µM and a TGI (DMS 114 small cell lung) greater than 100 µM.

In the case of `C=CC12CN(C)C3C4COC(CC41)C1(C(=O)Nc4ccccc41)C32` (configuration not stated), the TGI (P388 leukemia) is reported as greater than 133 µM, the TGI (SNB-78 CNS) is reported as greater than 200 µM and the TGI (P388/ADR leukemia) is reported as greater than 200 µM. The TGI (HOP-18 NSCLC) was greater than 200 µM, the TGI (SN12K1 renal) was greater than 200 µM and the TGI (DLD-1 colon) was greater than 200 µM. It also gave a TGI (M19-MEL melanoma) greater than 200 µM, a TGI (DMS 273 small cell lung) greater than 200 µM and a TGI (XF 498 CNS) of 29.2 µM. It also gave a TGI (KM20L2 colon) greater than 200 µM and a TGI (DMS 114 small cell lung) greater than 200 µM.

Work on `CC(C)=CCC/C(C)=C/Cc1c(O)ccc2c1[nH]c1cc(O)c(C)cc12` yielded a TGI (SNB-78 CNS) greater than 25 µM, a TGI (DLD-1 colon) greater than 25 µM and a TGI (M19-MEL melanoma) greater than 25 µM. For the same compound, the TGI (DMS 273 small cell lung) was greater than 25 µM, the TGI (XF 498 CNS) was greater than 25 µM and the TGI (KM20L2 colon) was greater than 25 µM. It also gave a TGI (LXFL 529 NSCLC) greater than 25 µM and a TGI (DMS 114 small cell lung) greater than 25 µM.

Work on `Cn1c(=O)nc2n(-c3ccc(Cl)cc3Cl)c3ccccc3nc-2c1=O` yielded a TGI (SNB-78 CNS) of 39.3 µM, a TGI (HOP-18 NSCLC) of 23 µM and a TGI (DLD-1 colon) of 24.5 µM. The TGI (M19-MEL melanoma) was 2.91 µM, the TGI (XF 498 CNS) was 0.864 µM and the TGI (KM20L2 colon) was 5.8 µM. The TGI (DMS 114 small cell lung) was 4.26 µM.

`OC(c1ccccc1)(c1ccccc1)c1cccnc1` showed a TGI (SNB-78 CNS) greater than 100 µM, a TGI (HOP-18 NSCLC) greater than 100 µM and a TGI (DLD-1 colon) greater than 100 µM. For the same compound, the TGI (M19-MEL melanoma) was greater than 100 µM, the TGI (DMS 273 small cell lung) was greater than 100 µM and the TGI (XF 498 CNS) was greater than 100 µM. For the same compound, the TGI (KM20L2 colon) was greater than 100 µM and the TGI (DMS 114 small cell lung) was greater than 100 µM.

With `O=C(O)c1cc2c(s1)C(=O)c1sccc1C2=O` the TGI (SNB-78 CNS) was 0.909 µM, the TGI (HOP-18 NSCLC) was 17.7 µM and the TGI (DLD-1 colon) was 27.7 µM. For the same compound, the TGI (M19-MEL melanoma) was 2.49 µM, the TGI (DMS 273 small cell lung) was 22.8 µM and the TGI (XF 498 CNS) was 35.4 µM. For the same compound, the TGI (KM20L2 colon) was 35.3 µM and the TGI (DMS 114 small cell lung) was 11.2 µM.

`CCOC(=O)CN1CCSC1=NC#N` gave a TGI (P388 leukemia) greater than 100 µM, a TGI (SNB-78 CNS) greater than 100 µM and a TGI (P388/ADR leukemia) greater than 100 µM. It also gave a TGI (HOP-18 NSCLC) greater than 100 µM, a TGI (SN12K1 renal) greater than 100 µM and a TGI (DLD-1 colon) greater than 100 µM. It also gave a TGI (M19-MEL melanoma) greater than 100 µM, a TGI (DMS 273 small cell lung) greater than 100 µM and a TGI (XF 498 CNS) greater than 100 µM. It also gave a TGI (KM20L2 colon) greater than 100 µM and a TGI (DMS 114 small cell lung) greater than 100 µM.

`C=C(N=[N+]=[N-])c1cn(C2CC(O)C(CO)O2)c(=O)[nH]c1=O` (configuration not stated) gave a TGI (SNB-78 CNS) greater than 100 µM, a TGI (HOP-18 NSCLC) greater than 100 µM and a TGI (DLD-1 colon) greater than 100 µM. It also gave a TGI (M19-MEL melanoma) greater than 100 µM, a TGI (DMS 273 small cell lung) greater than 100 µM and a TGI (XF 498 CNS) greater than 100 µM. It also gave a TGI (KM20L2 colon) greater than 100 µM, a TGI (LXFL 529 NSCLC) greater than 100 µM and a TGI (DMS 114 small cell lung) greater than 100 µM.

`O=C(Nc1ccc([N+](=O)[O-])cc1)C(=O)C(C(=O)c1ccccc1F)C1OC(=O)c2ccccc21` (configuration not stated) showed a TGI (RXF-631 renal) of 84 µM, a TGI (SNB-78 CNS) greater than 100 µM and a TGI (DLD-1 colon) greater than 100 µM. It also gave a TGI (M19-MEL melanoma) greater than 100 µM, a TGI (DMS 273 small cell lung) greater than 100 µM and a TGI (XF 498 CNS) greater than 100 µM. The TGI (KM20L2 colon) was greater than 100 µM, the TGI (LXFL 529 NSCLC) was greater than 100 µM and the TGI (DMS 114 small cell lung) was 98 µM.
